42 compounds from ChEMBL document CHEMBL5380807, “Imidazo[1,2-a]Pyridine Derivatives as Novel Dual-Target Inhibitors of ABCB1 and ABCG2 for Reversing Multidrug Resistance” (J Med Chem, 2023) can be followed below.

For data set [1], the system named is K562/A02. Kind of data set: Reversal of ABCB1 mediated adriamycin resistance in human K562/A02 overexpressing ABCB1 assessed as decrease in survival rate at 1.25 to 5 uM preincubated for 1 hrs followed by adriamycin addition and measured after 72 hrs by MTS assay. In kind it is functional, cell-based. Conditions: dose 1.25-5 µM, time 73.0 hrs.
Data set [2] can be described thus: Cytotoxicity against human K562/A02 cells overexpressing ABCB1 assessed as decrease in cell survival rate incubated for 72 hrs by MTS assay. In kind it is toxicity, cell-based.
Data set [3] can be described thus: Cytotoxicity against human K562 cells assessed as decrease in cell survival rate incubated for 72 hrs by MTS assay. It is filed as toxicity, cell-based.
Data set [4] relates to K562. Kind of data set: Reversal of ABCB1 mediated adriamycin resistance in human K562 assessed as decrease in survival rate at 1.25 to 5 uM preincubated for 1 hrs followed by adriamycin addition and measured after 72 hrs by MTS assay. In kind it is functional, cell-based. Conditions: dose 1.25-5 µM, time 73.0 hrs.
In data set [5] the test system is K562. The data set can be described thus: Reversal of ABCB1 mediated adriamycin resistance in human K562 cells assessed as reduction in survival rate at 5 uM preincubated for 1 hrs followed by adriamycin addition and measured after 72 hrs by MTS assay. It is filed as functional, cell-based. Conditions: time 73.0 hrs.
Data set [6] deals with K562/A02. The data set can be described thus: Reversal of ABCB1 mediated adriamycin resistance in human K562/A02 cells overexpressing ABCB1 assessed as reduction in survival rate at 1 uM preincubated for 1 hrs followed by adriamycin addition and measured after 72 hrs by MTS assay. It is filed as functional. Conditions: time 73.0 hrs.
Data set [7] deals with K562/A02. Kind of data set: Cytotoxicity against human K562/A02 cells overexpressing ABCB1 assessed as decrease in cell survival rate at 5 uM incubated for 72 hrs by MTS assay. In kind it is toxicity, cell-based. Conditions: k562/a02, 72 h.
Data set [8] has as its system K562. The data set can be described thus: Cytotoxicity against human K562 cells assessed as decrease in cell survival rate at 5 uM incubated for 72 hrs by MTS assay. It is filed as toxicity, cell-based. Conditions: k562, 72 h.
Data set [9] deals with K562. Kind of data set: Reversal of ABCB1 mediated adriamycin resistance in human K562 cells assessed as reduction in survival rate at 1 uM preincubated for 1 hrs followed by adriamycin addition and measured after 72 hrs by MTS assay. In kind it is functional, cell-based. Conditions: time 73.0 hrs.
Data set [10] concerns K562/A02. Kind of data set: Reversal of ABCB1 mediated adriamycin resistance in human K562/A02 cells overexpressing ABCB1 assessed as reduction in survival rate at 5 uM preincubated for 1 hrs followed by adriamycin addition and measured after 72 hrs by MTS assay. In kind it is functional. Conditions: time 73.0 hrs.

Activity calls are given as the source filed them. The rule behind the calls is not given here.

Consider `O=C(CCCN1CCN(c2ccccc2)CC1)Nc1ccc(-c2nc3ccccn3c2CN2CCN(c3ccccc3)CC2)cc1`, for which the result in the data set with K562/A02 [1] and in the data set on K562 [4] was Active. Also, the IC50 at 72 h in data set [2] stood at 7.07 µM; in [3], 3.72 µM.
Consider `COc1cc2c(cc1OC)CN(Cc1c(-c3ccc(NC(=O)CN4CCOCC4)cc3)nc3ccccn13)CC2`, for which the IC50 at 72 h in data set [2] and in data set [3] was greater than 100 µM in each case.
Turning to `CCN(CC)CC(=O)Nc1ccc(-c2nc3ccccn3c2CN2CCc3cc(OC)c(OC)cc3C2)cc1`, the IC50 at 72 h in [2] and in [3] was greater than 100 µM each time.
In the case of `C=CCc1ccc(OCC(=O)Nc2ccc(-c3nc4ccccn4c3CN3CCc4cc(OC)c(OC)cc4C3)cc2)c(OC)c1`, the half-inhibitory concentration (IC50) at 72 h in [2] and in data set [3] was greater than 100 µM throughout.
As for `Cc1cccc(/C=C/C(=O)Nc2ccc(-c3nc4ccccn4c3CN3CCN(c4ccccc4)CC3)cc2)c1`, the IC50 at 72 h in data set [2] and in data set [3] was greater than 100 µM throughout.
`COc1cc2c(cc1OC)CN(CC(=O)Nc1ccc(-c3nc4ccccn4c3CN3CCCC3)cc1)CC2`: the outcome in the data set with K562 [5] and with K562 [9] was inactive. The result in the data set with K562/A02 [6] and in the data set with K562/A02 [10] was Active. In addition, the Activity result in the data set with K562/A02 [7] and with K562 [8] was “Non-Toxic” throughout.
As to `COc1cc2c(cc1OC)CN(Cc1c(-c3ccc(NC(=O)COc4ccccc4C)cc3)nc3ccccn13)CC2`, in the data set with K562/A02 [1], the outcome was Active. Moreover, the IC50 at 72 h in data set [2] and in data set [3] was greater than 100 µM throughout. Further, the outcome in the data set on K562 [4] was inactive.
In the case of `COc1cc2c(cc1OC)CN(Cc1c(-c3ccc(NC(=O)COc4ccccc4Br)cc3)nc3ccccn13)CC2`, the IC50 at 72 h in data set [2] and in data set [3] was greater than 100 µM each time.
Take `COc1cc2c(cc1OC)CN(Cc1c(-c3ccc(NC(=O)CN4CCN(C)CC4)cc3)nc3ccccn13)CC2`: the IC50 at 72 h was greater than 100 µM in data set [2] and 50.7 µM in data set [3].
For the compound `COc1cc2c(cc1OC)CN(Cc1c(-c3ccc(NC(=O)COc4ccc(C)cc4)cc3)nc3ccccn13)CC2`, the result with K562/A02 [1] was Active. Also, the IC50 at 72 h in data set [2] and in [3] was greater than 100 µM throughout. Besides, the outcome with K562 [4] was inactive.
Consider `COc1cc2c(cc1OC)CN(Cc1c(-c3ccc(NC(=O)CN4CCN(c5ccc(OC(F)(F)F)cc5)CC4)cc3)nc3ccccn13)CC2`, for which the IC50 at 72 h in data set [2] amounted to 81.2 µM; in data set [3], 83.7 µM.
With `COc1cc2c(cc1OC)CN(CC(=O)Nc1ccc(-c3nc4ccccn4c3COCc3ccccc3)cc1)CC2`, the result in the data set with K562 [5] and in the data set with K562 [9] was inactive. The result in the data set on K562/A02 [6] and in the data set on K562/A02 [10] was Active. The Activity entry in the data set on K562/A02 [7] and in the data set on K562 [8] was “Non-Toxic” throughout.
On to `CN(C)CC(=O)Nc1ccc(-c2nc3ccccn3c2CN2CCN(c3ccccc3)CC2)cc1`, for which the IC50 at 72 h came out at 51.2 µM in [2] and 25.2 µM in [3].
The corresponding values for `COc1cc2c(cc1OC)CN(Cc1c(-c3ccc(NC(=O)CCN4CCN(c5ccccc5)CC4)cc3)nc3ccccn13)CC2` are 30.6 µM and 93.1 µM.
On the same counts, the results for `O=C(/C=C/c1ccc([N+](=O)[O-])cc1)Nc1ccc(-c2nc3ccccn3c2CN2CCN(c3ccccc3)CC2)cc1` are 48.7 µM and 10.7 µM.
In the case of `COc1cc(/C=C/C(=O)Nc2ccc(-c3nc4ccccn4c3CN3CCN(c4ccccc4)CC3)cc2)cc(OC)c1OC`, in the data set with K562/A02 [1], the result was Active. Also, the IC50 at 72 h in data set [2] and in [3] was greater than 100 µM each time. In the data set on K562 [4], the outcome was inactive.
For the compound `COc1cccc(OCC(=O)Nc2ccc(-c3nc4ccccn4c3CN3CCc4cc(OC)c(OC)cc4C3)cc2)c1`, the IC50 at 72 h in data set [2] and in data set [3] was greater than 100 µM each time.
`O=C(/C=C/c1ccc(F)cc1)Nc1ccc(-c2nc3ccccn3c2CN2CCN(c3ccccc3)CC2)cc1`: in the data set with K562/A02 [1], the result was Active. Moreover, the IC50 at 72 h in data set [2] and in data set [3] was greater than 100 µM in each case. The outcome in the data set on K562 [4] was inactive.
Take `O=C(CNCc1ccccc1)Nc1ccc(-c2nc3ccccn3c2CN2CCN(c3ccccc3)CC2)cc1`: the result in the data set on K562/A02 [1] was Active. In addition, the IC50 at 72 h in [2] is 28.8 µM; in data set [3], 25.8 µM. The outcome in the data set with K562 [4] was inactive.
For `COc1cc2c(cc1OC)CN(Cc1c(-c3ccc(NC(=O)CN(C)C)cc3)nc3ccccn13)CC2`, the IC50 at 72 h in [2] and in [3] was greater than 100 µM throughout.
For the compound `O=C(CCN1CCN(c2ccccc2)CC1)Nc1ccc(-c2nc3ccccn3c2CN2CCN(c3ccccc3)CC2)cc1`, in the data set on K562/A02 [1], the outcome was Active. In addition, the IC50 at 72 h is 22.9 µM in data set [2] and 58.8 µM in data set [3]. Besides, the result in the data set on K562 [4] was inactive.
Consider `O=C(CN1CCOCC1)Nc1ccc(-c2nc3ccccn3c2CN2CCN(c3ccccc3)CC2)cc1`, for which the IC50 at 72 h in data set [2] and in data set [3] was greater than 100 µM each time.
Regarding `COc1cc2c(cc1OC)CN(Cc1c(-c3ccc(NC(=O)COc4ccc(OC(F)(F)F)cc4)cc3)nc3ccccn13)CC2`, the IC50 at 72 h in data set [2] worked out at 40.9 µM; in data set [3] it was 29.9 µM.
Turning to `CCN(CC)CC(=O)Nc1ccc(-c2nc3ccccn3c2CN2CCN(c3ccccc3)CC2)cc1`, the results for the IC50 at 72 h in data set [2] and in data set [3] were 40 µM and 24.3 µM, respectively.
With `COc1cc2c(cc1OC)CN(Cc1c(-c3ccc(NC(=O)COc4ccccc4)cc3)nc3ccccn13)CC2`, in the data set on K562/A02 [1], the outcome was Active. In addition, the IC50 at 72 h in data set [2] and in data set [3] was greater than 100 µM throughout. Besides, the result in the data set with K562 [4] was inactive.
As for `COc1cc2c(cc1OC)CN(Cc1c(-c3ccc(NC(=O)COc4cccc([N+](=O)[O-])c4)cc3)nc3ccccn13)CC2`, the IC50 at 72 h in [2] and in data set [3] was greater than 100 µM in each case.
With `O=C(/C=C/c1ccccc1)Nc1ccc(-c2nc3ccccn3c2CN2CCN(c3ccccc3)CC2)cc1`, the IC50 at 72 h in [2] and in data set [3] was greater than 100 µM throughout.
With `COc1cc2c(cc1OC)CN(Cc1c(-c3ccc(NC(=O)Cn4cnnc4)cc3)nc3ccccn13)CC2`, the IC50 at 72 h in data set [2] and in [3] was greater than 100 µM each time.
Consider `Cc1ccc(/C=C/C(=O)Nc2ccc(-c3nc4ccccn4c3CN3CCN(c4ccccc4)CC3)cc2)cc1`, for which the IC50 at 72 h in [2] is greater than 100 µM; in data set [3] it was 32.8 µM.
The corresponding values for `O=C(Cn1cnnc1)Nc1ccc(-c2nc3ccccn3c2CN2CCN(c3ccccc3)CC2)cc1` are greater than 100 µM and greater than 100 µM.
On the same counts, the results for `COc1cc2c(cc1OC)CN(Cc1c(-c3ccc(NC(=O)CN4CCN(c5ccccc5)CC4)cc3)nc3ccccn13)CC2` are greater than 100 µM and greater than 100 µM.
The corresponding values for `O=C1CCCN1c1ccc(-c2nc3ccccn3c2CN2CCN(c3ccccc3)CC2)cc1` are greater than 100 µM and greater than 100 µM.
In the case of `O=C(CCn1cnnc1)Nc1ccc(-c2nc3ccccn3c2CN2CCN(c3ccccc3)CC2)cc1`, the IC50 at 72 h in data set [2] and in data set [3] was greater than 100 µM each time.
Take `COc1cc2c(cc1OC)CN(Cc1c(-c3ccc(NC(=O)COc4ccc(Cl)cc4)cc3)nc3ccccn13)CC2`: in the data set on K562/A02 [1], the result was Active. Further, the values for the IC50 at 72 h in data set [2] and in [3] were 83 µM and greater than 100 µM, respectively. Further, the result in the data set with K562 [4] was inactive.
For `CN1CCN(CC(=O)Nc2ccc(-c3nc4ccccn4c3CN3CCN(c4ccccc4)CC3)cc2)CC1`, the IC50 at 72 h amounted to 54.6 µM in [2] and 21.4 µM in [3].
On the same counts, the results for `COc1cc2c(cc1OC)CN(Cc1c(-c3ccc(NC(=O)/C=C/c4cc(OC)c(OC)c(OC)c4)cc3)nc3ccccn13)CC2` are greater than 100 µM and greater than 100 µM.
The corresponding values for `O=C(/C=C/c1ccc(Cl)cc1)Nc1ccc(-c2nc3ccccn3c2CN2CCN(c3ccccc3)CC2)cc1` are greater than 100 µM and greater than 100 µM.
The corresponding values for `O=C1CCN1c1ccc(-c2nc3ccccn3c2CN2CCN(c3ccccc3)CC2)cc1` are 45.5 µM and 10.5 µM.
For the compound `O=C(CN1CCN(c2ccccc2)CC1)Nc1ccc(-c2nc3ccccn3c2CN2CCN(c3ccccc3)CC2)cc1`, the IC50 at 72 h in data set [2] and in [3] was greater than 100 µM in each case.
For the compound `COc1ccc(OCC(=O)Nc2ccc(-c3nc4ccccn4c3CN3CCc4cc(OC)c(OC)cc4C3)cc2)cc1`, the IC50 at 72 h in data set [2] and in [3] was greater than 100 µM each time.
As for `COc1cc2c(cc1OC)CN(Cc1c(-c3ccc(NC(=O)COc4cccc5cccnc45)cc3)nc3ccccn13)CC2`, the IC50 at 72 h in [2] and in [3] was greater than 100 µM each time.
Turning to `COc1cc2c(cc1OC)CN(CCC(=O)Nc1ccc(-c3nc4ccccn4c3CN3CCN(c4ccccc4)CC3)cc1)CC2`, the result in the data set on K562/A02 [1] and with K562 [4] was Active. Moreover, the IC50 at 72 h in data set [2] came to 13.6 µM; in data set [3] it was 3.31 µM.
